Assay in all cases: inhibition of tumour cell growth, NCI panel, 48 h
The subject of assay [1] is TK-10 renal.
For assay [2], the system named is COLO 205 colon.
Assay [3] has as its system NCI-H460 lung.
In assay [4] the test system is SK-OV-3 ovarian.
The subject of assay [5] is A498 renal.
In assay [6] the test system is SR leukemia.
Assay [7] concerns CCRF-CEM leukemia.
For assay [8], the system named is SNB-19 CNS.
The test system of assay [9] is HT29 colon.
Assay [10] has as its system HOP-92 NSCLC.

This is an account of results in PubChem BioAssay (NCI).

Molecules are shown by their SMILES.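 Exposure lasted 48 hours, with cells grown in 96-well plates and compounds tested at five concentrations. At the GI50, growth is halved. TGI denotes the concentration required for complete inhibition of growth.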

`Cc1c(C(Cc2ccccc2N(C)C(=O)/C=C\C(=O)O)c2c[nH]c3ccccc23)c2ccccc2n1C` (stereo not given): the TGI in [1] came out at 33.8 µM; in assay [2] it was 29.6 µM; in assay [3], 32.7 µM; in assay [4], 40.2 µM; in assay [5], 35.6 µM; in assay [6] it was 46.7 µM. The figures for the TGI in assay [7], in assay [8] and in [9] were 37.1 µM, 39.4 µM and 30.8 µM, respectively.
In the case of `Cc1cc(N(CCC#N)CCC#N)ccc1/C=C(\NC(=O)/C=C/c1ccccc1)C(=O)N=[N+]=[N-]`, the TGI in assay [1], in [2], in assay [3], in assay [4], in assay [5] and in assay [7] was above 100 µM throughout. Moreover, the TGI in assay [8] and in assay [9] was above 100 µM throughout.
With `CC(=O)N1C/C(=C\c2ccccc2)C(=O)/C(=C/c2ccccc2)C1`, the TGI in assay [1] was 34.8 µM; in [2], 33.9 µM; in [3], 40.2 µM; in [4] it was above 54 µM; in assay [5] it was 31.8 µM; in assay [6], 17.5 µM. Also, the figures for the TGI in assay [7], in assay [8] and in assay [9] were 11.3 µM, 31.5 µM and 13.8 µM, respectively.
For the compound `O=C(O)/C=C/c1ccc(O)c(O)c1`, the TGI in assay [1], in [2], in assay [3], in assay [4], in assay [5] and in [7] was above 100 µM each time. The TGI in assay [8], in assay [10] and in [9] was above 100 µM in each case.
On to `O=C(NCc1cn(Cc2cccc(Oc3ccccc3)c2)nn1)c1cccnc1Nc1ccc(F)cc1`, for which the GI50 in assay [1] is 24.5 µM; in [2], 6.22 µM; in assay [3], 5.25 µM; in [4], 5.94 µM; in [5], 13.7 µM; in assay [7], above 100 µM. In addition, the figures for the GI50 in assay [8], in assay [10] and in assay [9] were 20.7 µM, 10.7 µM and 5.6 µM, respectively. For the same compound, the TGI was above 100 µM in [1]; above 100 µM in assay [2]; above 100 µM in assay [3]; 36.1 µM in assay [4]; 95.1 µM in assay [5]; above 100 µM in assay [7]. Also, the TGI in assay [8] was above 100 µM; in assay [10] it was 43.5 µM; in assay [9] it was above 100 µM.
In the case of `CC(C)(C)CC(C)(C)c1ccc(OCCO)cc1`, the GI50 in [1] was 10.6 µg/mL; in assay [2], 4.69 µg/mL; in assay [3], 2.95 µg/mL; in assay [4], 11.2 µg/mL; in assay [5] it was 0.0423 µg/mL; in assay [6], 1.43 µg/mL. Moreover, the GI50 in [7] is 6.02 µg/mL; in assay [8], 6.58 µg/mL; in assay [9] it was 10.6 µg/mL. Further, the TGI in assay [1] was 33 µg/mL; in [2], 15.4 µg/mL; in [3], 16.4 µg/mL; in assay [4] it was 28.6 µg/mL; in assay [5], 14.2 µg/mL; in assay [6], above 75 µg/mL. Also, the results for the TGI in assay [7], in assay [8] and in [9] were 40.1 µg/mL, 19.5 µg/mL and 28.1 µg/mL, respectively.
In the case of `NC1=C(O)c2cccc3cccc(c23)C1=O`, the TGI in assay [1], in assay [2], in assay [4], in assay [5], in assay [7] and in assay [8] was above 100 µM in each case. The TGI in assay [10] and in [9] was above 100 µM throughout.
As to `CN1CCN(Cc2ccc(NC(=O)c3cncc(C#Cc4cnc(N)c5ncccc45)c3)cc2C(F)(F)F)CC1`, the GI50 is 0.686 µM in assay [1]; 0.231 µM in assay [2]; 0.261 µM in [3]; 0.391 µM in [4]; 0.141 µM in [5]; 0.324 µM in [7]. Further, the GI50 is 2.11 µM in assay [8], 0.209 µM in [10] and 0.157 µM in assay [9]. Besides, the TGI in assay [1] stood at 3.68 µM; in assay [2], 1.66 µM; in assay [3], 1.59 µM; in assay [4], 9.07 µM; in assay [5], 0.652 µM; in [8] it was 11.8 µM. The figures for the TGI in [10] and in [9] were 1.24 µM and 1.48 µM, respectively.
Regarding `O=c1nc2n(-c3cccc(Cl)c3)c3ccc([N+](=O)[O-])cc3cc-2c(=O)[nH]1`, the GI50 in [1] was 7.27 µM; in assay [2], 7.94 µM; in [3] it was 9.77 µM; in [4] it was 15 µM; in [5], 16.7 µM; in assay [7], 2.09 µM. Moreover, the values for the GI50 in [8], in assay [10] and in assay [9] were 7.5 µM, 7.75 µM and 9.06 µM, respectively. The TGI is 13.9 µM in assay [1]; above 25 µM in assay [2]; above 25 µM in assay [3]; above 25 µM in assay [4]; above 25 µM in assay [5]; above 25 µM in assay [7]. Also, the TGI in assay [8] was above 25 µM; in [10] it was 24.7 µM; in [9], above 25 µM.
Take `COc1ccc(C(=O)C(C(=O)CCC(=O)Nc2ccc(Cl)c(Cl)c2)c2ccc(OC)cc2)cc1` (stereo not given): the TGI in assay [1], in assay [3], in [5], in assay [7], in assay [8] and in [10] was above 100 µM in each case. In assay [9], the TGI was above 100 µM.
In the case of `Cn1cc(C2=C(c3ccsc3)C(=O)NC2=O)c2ccccc21`, the GI50 is above 25 µM in assay [1]; above 25 µM in [2]; above 25 µM in [3]; above 25 µM in [4]; 12.1 µM in assay [5]; above 25 µM in [6]. For the same compound, the GI50 in [7] was above 21.1 µM; in assay [8] it was above 25 µM; in assay [9] it was above 25 µM. For the same compound, the TGI in [1], in assay [2], in assay [3], in assay [4], in [5] and in assay [6] was above 25 µM in each case. In addition, the TGI in assay [7], in assay [8] and in assay [9] was above 25 µM each time.
`Cn1cc(C2NC(=O)c3ccccc3N2)c2ccccc21` (stereo not given): the TGI was above 100 µM in [1]; above 42.8 µM in [3]; 40.3 µM in assay [4]; above 100 µM in assay [5]; 0.877 µM in assay [7]; above 91 µM in assay [8]. Moreover, the TGI in [10] is above 100 µM; in assay [9], 0.86 µM.
Take `C/C(CN1C(=O)c2ccccc2C1=O)=N\NS(=O)(=O)c1ccc2ccccc2c1`: the TGI in assay [1], in [2], in assay [3], in assay [4], in [5] and in [6] was above 100 µM each time. Besides, the TGI in assay [7], in [8] and in [9] was above 100 µM in each case.
For the compound `O=c1[nH]c2ccccc2n1C1CCNCC1`, the GI50 was above 100 µM in assay [1]; above 100 µM in [2]; above 100 µM in assay [3]; above 100 µM in [4]; 24.4 µM in assay [5]; above 100 µM in assay [6]. Moreover, the GI50 in [7], in [8] and in assay [9] was above 100 µM throughout. In addition, the TGI in assay [1], in assay [2], in assay [3], in assay [4], in assay [5] and in [6] was above 100 µM each time. Besides, the TGI in [7], in assay [8] and in [9] was above 100 µM in each case.
`COc1cccc2c1nc(C(F)F)n2-c1nc(-c2ccc(NS(=O)(=O)CCN(C)C)cc2)nc(N2CCOCC2)n1`: the GI50 in assay [1] is 0.0597 µM; in assay [2] it was 0.0908 µM; in assay [3], 0.0883 µM; in assay [4] it was 0.0396 µM; in assay [5] it was 0.0337 µM; in [6] it was 0.319 µM. Also, the GI50 in assay [7] is 0.257 µM; in [8] it was 1.28 µM; in assay [9], 0.0999 µM. Also, the TGI in assay [1] was 0.615 µM; in assay [2], 2.64 µM; in assay [3] it was 1.33 µM; in assay [4], 0.214 µM; in [5], 0.279 µM; in [6], 3.87 µM. Further, the figures for the TGI in [7], in assay [8] and in [9] were 20.5 µM, above 100 µM and 4.39 µM, respectively.
Regarding `CCN(CC)CC(=O)NC1c2ccccc2Oc2ccccc21`, the TGI in [1], in assay [2], in [3], in assay [4], in assay [6] and in assay [7] was above 100 µM each time. In addition, the TGI in assay [8] and in [9] was above 100 µM each time.
For `O=C1C2C3CC4C5C3C1C5C1(SCCS1)C42` (stereo not given), the TGI in [1], in [2], in assay [3], in assay [4], in assay [5] and in assay [6] was above 100 µM throughout. In addition, the TGI in assay [7] and in [8] was above 100 µM throughout.
Turning to `O=C(CCCc1ccc(N(CCCl)CCCl)cc1)NCc1ccccc1`, the GI50 in assay [1] was 15.5 µM; in [2], 13.5 µM; in assay [3], 2.81 µM; in assay [4], 7.15 µM; in [5], 2.59 µM; in assay [6] it was 0.978 µM. Further, the GI50 was 3.24 µM in [7], 18.7 µM in assay [8] and 8.21 µM in assay [9]. The TGI in assay [1] turned out to be 56.8 µM; in [2], 33 µM; in [3], 59.4 µM; in assay [4] it was 40.8 µM; in [5] it was 20.8 µM; in assay [6], 3.66 µM. The TGI in [7] was 25.4 µM; in [8], above 100 µM; in assay [9] it was 52 µM.
Take `COC(=O)C(=O)C(C#N)c1nc2ccccc2s1` (stereo not given): the TGI in [1], in assay [2], in assay [3], in [4], in assay [5] and in assay [7] was above 100 µM in each case. Moreover, the TGI in assay [8], in assay [10] and in assay [9] was above 100 µM in each case.
On to `COc1nc(NC2OC(COC(C)=O)C(OC(C)=O)C(OC(C)=O)C2OC(C)=O)c(N=CC=Nc2c(NC3OC(COC(C)=O)C(OC(C)=O)C(OC(C)=O)C3OC(C)=O)nc(OC)[nH]c2=O)c(=O)[nH]1` (stereo not given), for which the TGI in assay [1], in assay [2], in assay [4], in [5], in assay [7] and in [8] was above 100 µM each time. The TGI in assay [10] and in assay [9] was above 100 µM in each case.
Turning to `O=C(CCc1nnc2s/c(=C\c3ccc([N+](=O)[O-])cc3)c(=O)n12)Nc1ccc(Cl)c(Cl)c1`, the TGI in [1] is above 100 µM; in [2] it was 82.9 µM; in assay [3], above 100 µM; in assay [4], above 100 µM; in assay [5], above 100 µM; in assay [7], 51 µM. The results for the TGI in assay [8], in [10] and in assay [9] were above 100 µM, above 100 µM and 71.7 µM, respectively.
On to `O=C1NN2CC(c3ccccc3)=NN=C2c2ccccc21`, for which the GI50 is 31.5 µM in [1]; 20.3 µM in [2]; 30.3 µM in assay [3]; 24.2 µM in assay [4]; 87.5 µM in assay [5]; 0.507 µM in assay [6]. For the same compound, the GI50 was 22.9 µM in [7], 20.5 µM in [8] and 24.7 µM in [9]. Moreover, the TGI in assay [1] is 98.3 µM; in assay [2] it was 41 µM; in assay [3] it was 92.6 µM; in assay [4] it was 51 µM; in [5] it was above 100 µM; in assay [6] it was 42 µM. Moreover, the figures for the TGI in [7], in [8] and in assay [9] were 55.7 µM, 44.7 µM and 49 µM, respectively.
